“And” between values parts separate entries of the source, which are not always exact repeats. Equal values may be shown once. Toxic doses and inconclusive results are not listed.
System: BDF1 mice, P388 leukemia ip, median survival T/C
Assay: NCI In Vivo Anticancer Drug Screen. Data for tumor model P388 Leukemia (intraperitoneal) in B6D2F1 (BDF1) mice
Conditions: endpoint: median survival time, higher = longer survival
Summary of the method: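 T/C = treated-group survival ÷ vehicle-control survival; tumour transplanted into mice before dosing.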

[1] = dose: 100.0 mg/kg/injection, schedule: Q04DX003 (ip), vehicle: saline with Tween-80
[2] = dose: 200.0 mg/kg/injection, schedule: Q04DX003 (ip), vehicle: saline with Tween-80
[3] = dose: 400.0 mg/kg/injection, schedule: Q04DX003 (ip), vehicle: saline with Tween-80
[4] = dose: 100.0 mg/kg/injection, schedule: Q01DX009 (ip), vehicle: saline with Tween-80
[5] = dose: 200.0 mg/kg/injection, schedule: Q01DX009 (ip), vehicle: saline with Tween-80
[6] = dose: 100.0 mg/kg/injection, schedule: Q01DX009 (ip), vehicle: saline
[7] = dose: 200.0 mg/kg/injection, schedule: Q01DX009 (ip), vehicle: saline
[8] = dose: 400.0 mg/kg/injection, schedule: Q01DX009 (ip), vehicle: saline
[9] = dose: 12.5 mg/kg/injection, schedule: Q04DX003 (ip), vehicle: saline with Tween-80
[10] = dose: 25.0 mg/kg/injection, schedule: Q04DX003 (ip), vehicle: saline with Tween-80
[11] = dose: 50.0 mg/kg/injection, schedule: Q04DX003 (ip), vehicle: saline with Tween-80
[12] = dose: 3.12 mg/kg/injection, schedule: Q01DX009 (ip), vehicle: saline
[13] = dose: 6.25 mg/kg/injection, schedule: Q01DX009 (ip), vehicle: saline
[14] = dose: 12.5 mg/kg/injection, schedule: Q01DX009 (ip), vehicle: saline
[15] = dose: 100.0 mg/kg/injection, schedule: Q04DX003 (ip), vehicle: Klucel (hydroxypropylcellulose) (HPC)
[16] = dose: 200.0 mg/kg/injection, schedule: Q04DX003 (ip), vehicle: Klucel (hydroxypropylcellulose) (HPC)
[17] = dose: 400.0 mg/kg/injection, schedule: Q04DX003 (ip), vehicle: Klucel (hydroxypropylcellulose) (HPC)

For C/C=C(\C)C(=O)OC1C(C)C2(O)C(C=C(CO)CC3(O)C(=O)C(C)=CC32)C2C(C)(C)C12OC(=O)CCCCCCCCC (stereo not given), the T/C (dose: 0.01 mg/kg/injection, schedule: Q01DX009 (ip), vehicle: gum acacia) was 98 % of control, the T/C (dose: 0.01 mg/kg/injection, schedule: Q01DX009 (ip), vehicle: saline + alcohol) was 90 % of control and the T/C (dose: 0.01 mg/kg/injection, schedule: Q01DX009 (ip), vehicle: saline with Tween-80) was 118 % of control. For the same molecule, the T/C (dose: 0.02 mg/kg/injection, schedule: Q01DX009 (ip), vehicle: gum acacia) was 93 % of control, the T/C (dose: 0.03 mg/kg/injection, schedule: Q01DX009 (ip), vehicle: Klucel (hydroxypropylcellulose) (HPC)) was 110 % of control and the T/C (dose: 0.03 mg/kg/injection, schedule: Q01DX009 (ip), vehicle: gum acacia) was 111 % of control. The T/C (dose: 0.03 mg/kg/injection, schedule: Q01DX009 (ip), vehicle: saline + alcohol) was 93 % of control and 108 % of control, the T/C (dose: 0.06 mg/kg/injection, schedule: Q01DX009 (ip), vehicle: Klucel (hydroxypropylcellulose) (HPC)) was 112 % of control and the T/C (dose: 0.06 mg/kg/injection, schedule: Q01DX009 (ip), vehicle: saline + alcohol) was 90 % of control and 108 % of control. The T/C (dose: 0.12 mg/kg/injection, schedule: Q01DX009 (ip), vehicle: Klucel (hydroxypropylcellulose) (HPC)) was 112 % of control, the T/C (dose: 0.25 mg/kg/injection, schedule: Q01DX009 (ip), vehicle: Klucel (hydroxypropylcellulose) (HPC)) was 112 % of control and the T/C (dose: 0.25 mg/kg/injection, schedule: Q01DX009 (ip), vehicle: saline + alcohol) was 163 % of control. For the same molecule, the T/C (dose: 0.5 mg/kg/injection, schedule: Q01DX009 (ip), vehicle: Klucel (hydroxypropylcellulose) (HPC)) was 119 % of control and the T/C (dose: 1.0 mg/kg/injection, schedule: Q01DX009 (ip), vehicle: Klucel (hydroxypropylcellulose) (HPC)) was 91 % of control.

O=C(/C=C/c1ccc(O)cc1)c1ccccc1 was tested, and the T/C [1] was 118 % of control, the T/C [2] was 168 % of control and the T/C [3] was 113 % of control.

For C(=Nc1ccccc1)c1ccc(-c2ccccc2)cc1, the T/C [4] was 115 % of control, the T/C [1] was 104 % of control and the T/C [5] was 100 % of control. For the same molecule, the T/C [2] was 104 % of control, the T/C (dose: 400.0 mg/kg/injection, schedule: Q01DX009 (ip), vehicle: saline with Tween-80) was 115 % of control and the T/C [3] was 109 % of control.

CC(C)(C)SC(=O)C[Si](C)(C)C was tested, and the T/C [1] was 113 % of control and the T/C [2] was 123 % of control.

O=c1[nH]cnc2c1ncn2C1OC(CF)C(O)C1O (stereo not given) was tested, and the T/C (dose: 100.0 mg/kg/injection, schedule: Q01DX001 (ip), vehicle: saline) was 108 % of control, the T/C [6] was 86 % of control and the T/C (dose: 200.0 mg/kg/injection, schedule: Q01DX001 (ip), vehicle: saline) was 108 % of control. For the same molecule, the T/C [7] was 91 % of control, the T/C (dose: 400.0 mg/kg/injection, schedule: Q01DX001 (ip), vehicle: saline) was 108 % of control and the T/C [8] was 86 % of control.

For CC1CC(C)(C)[N+](C)=C(CC(O)(c2ccccc2)c2ccccc2)O1 (stereo not given), the T/C (dose: 6.25 mg/kg/injection, schedule: Q04DX003 (ip), vehicle: saline sonified) was 109 % of control, the T/C (dose: 12.5 mg/kg/injection, schedule: Q04DX003 (ip), vehicle: saline sonified) was 90 % of control and the T/C (dose: 25.0 mg/kg/injection, schedule: Q04DX003 (ip), vehicle: saline sonified) was 90 % of control.

COc1ccc(/C(C#N)=C2C=C/C(=N\O)C(C)=C/2Cl)cc1 was tested, and the T/C [9] was 91 % of control, the T/C [10] was 91 % of control and the T/C [11] was 87 % of control.

With CC#CC(=O)SCCNC(=O)CC the T/C [9] was 100 % of control, the T/C [10] was 104 % of control and the T/C [11] was 95 % of control and 100 % of control.

With Cn1c(N)c(N=O)c(=O)n(C)c1=O the T/C [12] was 109 % of control, the T/C [13] was 100 % of control and the T/C [14] was 100 % of control. The T/C (dose: 25.0 mg/kg/injection, schedule: Q01DX009 (ip), vehicle: Klucel (hydroxypropylcellulose) (HPC)) was 95 % of control, the T/C (dose: 50.0 mg/kg/injection, schedule: Q01DX009 (ip), vehicle: Klucel (hydroxypropylcellulose) (HPC)) was 90 % of control and the T/C (dose: 100.0 mg/kg/injection, schedule: Q04DX003 (ip), vehicle: alcohol) was 109 % of control. For the same molecule, the T/C (dose: 125.0 mg/kg/injection, schedule: Q01DX010 (ip), vehicle: other) was 109 % of control, the T/C (dose: 200.0 mg/kg/injection, schedule: Q04DX003 (ip), vehicle: alcohol) was 100 % of control and the T/C (dose: 250.0 mg/kg/injection, schedule: Q01DX010 (ip), vehicle: other) was 86 % of control. For the same molecule, the T/C (dose: 400.0 mg/kg/injection, schedule: Q04DX003 (ip), vehicle: alcohol) was 100 % of control.

CCOC(=O)NC was tested, and the T/C [6] was 104 % of control, the T/C [7] was 100 % of control and the T/C [8] was 112 % of control.

CCCCCCCCS.[Ni] was tested, and the T/C (dose: 100.0 mg/kg/injection, schedule: Q01DX001 (ip), vehicle: Klucel (hydroxypropylcellulose) (HPC)) was 100 % of control, the T/C [15] was 113 % of control and the T/C (dose: 200.0 mg/kg/injection, schedule: Q01DX001 (ip), vehicle: Klucel (hydroxypropylcellulose) (HPC)) was 100 % of control.

In the case of c1cc[c]([Pb]([c]2ccccc2)([c]2ccccc2)[n]2cccc2)cc1, the T/C [12] is reported as 90 % of control, the T/C [13] is reported as 109 % of control and the T/C [14] is reported as 109 % of control. For the same molecule, the T/C (dose: 21.25 mg/kg/injection, schedule: Q04DX003 (ip), vehicle: Klucel (hydroxypropylcellulose) (HPC)) was 100 % of control and the T/C (dose: 42.5 mg/kg/injection, schedule: Q04DX003 (ip), vehicle: Klucel (hydroxypropylcellulose) (HPC)) was 113 % of control.

In the case of CC1=C(O)/C(=C/C(C)CCC/C(C)=C/CC/C(C)=C/CCc2ccoc2)OC1=O (stereo not given), the T/C (dose: 0.31 mg/kg/injection, schedule: Q01DX009 (ip), vehicle: saline with Tween-80) is reported as 100 % of control, the T/C (dose: 0.62 mg/kg/injection, schedule: Q01DX009 (ip), vehicle: saline with Tween-80) is reported as 104 % of control and the T/C (dose: 2.5 mg/kg/injection, schedule: Q01DX009 (ip), vehicle: saline with Tween-80) is reported as 98 % of control. The T/C (dose: 5.0 mg/kg/injection, schedule: Q01DX009 (ip), vehicle: saline with Tween-80) was 90 % of control.

With CCSC(=O)CC the T/C (dose: 50.0 mg/kg/injection, schedule: Q01DX009 (ip), vehicle: saline with Tween-80) was 95 % of control, the T/C [4] was 105 % of control and the T/C [1] was 104 % of control. The T/C [5] was 100 % of control, the T/C [2] was 104 % of control and the T/C [3] was 100 % of control.

CCN(CC)c1ccc(Cc2ccc(N(CC)CC)cc2Br)c(Br)c1 was tested, and the T/C [15] was 111 % of control, the T/C [16] was 111 % of control and the T/C [17] was 111 % of control.

In the case of CC(=O)Nc1cc2c3c(c1)CCN3CCC2, the T/C (dose: 3.13 mg/kg/injection, schedule: Q01DX001 (ip), vehicle: saline with Tween-80) is reported as 95 % of control, the T/C (dose: 6.25 mg/kg/injection, schedule: Q01DX001 (ip), vehicle: saline with Tween-80) is reported as 95 % of control and the T/C (dose: 12.5 mg/kg/injection, schedule: Q01DX001 (ip), vehicle: saline with Tween-80) is reported as 90 % of control.

CCOC(=O)N(C)c1ccc(Cl)cc1C(N)=O was tested, and the T/C [15] was 100 % of control, the T/C [16] was 94 % of control and the T/C [17] was 115 % of control.

O=C(O)C(O)C(O)C(=O)O.O=C(O)C(O)C(O)C(=O)O.[O]=[V].[O]=[V] (stereo not given) was tested, and the T/C (dose: 3.13 mg/kg/injection, schedule: Q01DX009 (ip), vehicle: saline) was 110 % of control, the T/C [13] was 90 % of control and 100 % of control and the T/C (dose: 6.25 mg/kg/injection, schedule: Q04DX003 (ip), vehicle: saline) was 100 % of control. The T/C [14] was 95 % of control and 100 % of control, the T/C (dose: 12.5 mg/kg/injection, schedule: Q04DX003 (ip), vehicle: saline) was 95 % of control and 100 % of control and the T/C (dose: 25.0 mg/kg/injection, schedule: Q01DX009 (ip), vehicle: saline) was 90 % of control and 88 % of control. For the same molecule, the T/C (dose: 25.0 mg/kg/injection, schedule: Q04DX003 (ip), vehicle: saline) was 100 % of control.

In the case of Cc1ccc(CNc2ccc(F)cc2)cc1, the T/C (dose: 100.0 mg/kg/injection, schedule: Q01DX009 (ip), vehicle: other) is reported as 100 % of control, the T/C [1] is reported as 95 % of control and the T/C (dose: 178.0 mg/kg/injection, schedule: Q01DX009 (ip), vehicle: other) is reported as 100 % of control. The T/C (dose: 200.0 mg/kg/injection, schedule: Q01DX009 (ip), vehicle: other) was 95 % of control, the T/C [2] was 104 % of control and the T/C (dose: 266.0 mg/kg/injection, schedule: Q01DX009 (ip), vehicle: other) was 109 % of control. The T/C (dose: 400.0 mg/kg/injection, schedule: Q01DX009 (ip), vehicle: other) was 104 % of control and the T/C [3] was 100 % of control.
